# Laboratory results from patent US20100016300A1, “Imidazoacridine Compounds for Treating FLT3-Mediated Disorders” (priority 2006, published 2010).
# Numbering of substitutions follows the chain as printed. Like-named read-outs stand apart in the source and are kept apart here.
# What was measured:
# NTRK1 = NTRK1 (Homo sapiens, UniProt P04629); assay: Kinase selectivity analysis (FIG. 4A), NTRK1; format: biochemical; details: in words
# Source text: (§1) The IC50 value is, therefore, a measure of potency. Another important feature is specificity.
# FGFR2 = biological target: T1, FGFR2 (Homo sapiens, UniProt P21802); assay: SelectScreen in vitro kinase screen, FGFR2; format: biochemical
# T1 construct: the juxtamembrane, ATP and catalytic components projecting from the cell membrane into the cytosol have been expressed through recombinant genetic techniques; purchased Invitrogen, Inc. (SelectScreen platform)
# T1 sequence (P21802 399-821 limits assumed): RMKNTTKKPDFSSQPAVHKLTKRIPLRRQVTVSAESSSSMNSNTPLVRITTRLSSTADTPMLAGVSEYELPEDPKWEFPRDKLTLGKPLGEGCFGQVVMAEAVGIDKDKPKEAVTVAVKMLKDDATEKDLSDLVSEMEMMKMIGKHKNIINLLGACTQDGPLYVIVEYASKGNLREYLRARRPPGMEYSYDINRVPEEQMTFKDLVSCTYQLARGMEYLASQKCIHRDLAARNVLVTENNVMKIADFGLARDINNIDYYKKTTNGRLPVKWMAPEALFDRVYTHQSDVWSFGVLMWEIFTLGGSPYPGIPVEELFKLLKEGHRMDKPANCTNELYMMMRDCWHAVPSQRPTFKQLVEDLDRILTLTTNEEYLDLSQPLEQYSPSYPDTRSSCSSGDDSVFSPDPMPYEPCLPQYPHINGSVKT
# Source text: as §1
# PKC = assay: Kinase selectivity analysis (FIG. 4A), PKC; format: biochemical; details: in words
# Experimental: (§2) Testing of the compounds described in this invention was carried out using the SelectScreen™ platform from Invitrogen, Inc. (Carlsbad, Calif., USA) and the details of its performance are readily viewed via the web by linking to: http://www.invitrogen.com/downloads/SelectScm_Brochure.pdf.
# (§3) Briefly the approach is based on treating each specific kinase with a unique substrate and optical reporter system in the presence of ATP at 100 micromolar or at the apparent optimal ATP concentration for each kinase. In controls, the substrate is phosphorylated and a baseline optimal response is recorded. Graded amounts of putative inhibitor are then added in separate increments to generate a dose response curve. The latter is obtained by fitting to a sigmoid saturation equation, such as the Hill equation, and the concentration of test article producing 50 per cent inhibition is then noted as the IC50. […] The IC50 value is, therefore, a measure of potency. Another important feature is specificity. It is considered a desirable property when claiming efficacy to determine how many kinases are inhibited by the same molecule. The fewer number inhibited points toward specificity; the greater to inhibitory promiscuity.
# (§4) First the compounds of this invention were tested against a subset, the primary kinase screen, to determine initial activity at 1 and 0.1 micromolar concentrations.
# PDGFRb = PDGFRb (Homo sapiens, UniProt P09619); assay: Kinase selectivity analysis (FIG. 4A), PDGFRb; format: biochemical; details: in words
# Sequence of PDGFRb (P09619 33-1106): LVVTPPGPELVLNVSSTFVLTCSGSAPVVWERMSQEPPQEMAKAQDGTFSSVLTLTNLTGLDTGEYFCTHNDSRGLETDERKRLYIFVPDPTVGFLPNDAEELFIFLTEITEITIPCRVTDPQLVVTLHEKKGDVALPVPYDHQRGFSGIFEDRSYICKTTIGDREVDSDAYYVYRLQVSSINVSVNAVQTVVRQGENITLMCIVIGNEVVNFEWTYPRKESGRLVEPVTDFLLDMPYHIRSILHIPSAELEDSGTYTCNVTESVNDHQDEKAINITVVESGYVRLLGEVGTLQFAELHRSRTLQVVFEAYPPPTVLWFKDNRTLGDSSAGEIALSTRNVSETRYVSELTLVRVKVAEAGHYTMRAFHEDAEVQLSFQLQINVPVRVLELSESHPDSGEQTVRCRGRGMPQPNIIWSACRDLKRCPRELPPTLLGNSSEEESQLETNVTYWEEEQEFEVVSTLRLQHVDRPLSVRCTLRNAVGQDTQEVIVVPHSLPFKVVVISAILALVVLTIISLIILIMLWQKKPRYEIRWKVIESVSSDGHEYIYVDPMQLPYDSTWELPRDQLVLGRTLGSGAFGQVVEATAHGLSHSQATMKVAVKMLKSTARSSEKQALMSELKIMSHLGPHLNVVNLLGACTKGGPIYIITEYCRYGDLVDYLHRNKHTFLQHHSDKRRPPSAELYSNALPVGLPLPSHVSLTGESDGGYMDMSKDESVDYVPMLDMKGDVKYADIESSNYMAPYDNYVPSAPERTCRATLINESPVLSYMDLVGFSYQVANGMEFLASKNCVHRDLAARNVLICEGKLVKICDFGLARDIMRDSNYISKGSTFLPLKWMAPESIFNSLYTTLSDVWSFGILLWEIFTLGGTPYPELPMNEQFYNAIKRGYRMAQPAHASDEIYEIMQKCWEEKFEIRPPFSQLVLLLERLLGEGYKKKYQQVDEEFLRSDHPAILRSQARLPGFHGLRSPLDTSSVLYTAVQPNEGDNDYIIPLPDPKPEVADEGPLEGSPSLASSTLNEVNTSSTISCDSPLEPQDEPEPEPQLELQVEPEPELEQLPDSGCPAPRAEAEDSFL
# Experimental: as §2, §3, §4
# [1] = system: Experimental Autoimmune Encephalomyelitis (EAE); assay: Experimental autoimmune encephalomyelitis (EAE) in mice; format: in vivo, C57BL/6 mice; details: oral, from day 5: 10 mg/kg every 24 hrs, 20 mg/kg every 48 hrs, 30 mg/kg every 72 hrs; versus vehicle controls
# Experimental: The EAE preparation used to test the efficacy of the imidazoacridinone analogs of the present invention followed a similar protocol as described by Small et al. (Patent Application WO 2006/020145 A2, 23 Feb. 2006) and was conducted by MD Biosciences, a contract research organization that provides in vivo and in vitro disease models as well as mode of action studies for general inflammatory screening, arthritis, IBD, and multiple sclerosis. C57BL/6 mice were immunized with proteolipid protein emulsified in Complete Freund's Adjuvant on day 0 of the study. After a booster with pertussis toxin also on day 0 and then on day 2, the mice were treated on day 5 after disease induction with three oral dosing schedules of XF-2, at 10 mg/kg every 24 hrs, 20 mg/kg every 48 hrs and 30 mg/kg every 72 hrs.
# RS4(11) cells = assay: Cell viability in RS4(11) cells; format: cell-based, human
# Source text: (§5) It is now understood that an important subset of human myeloid leukemia cells overexpress FLT3 as constitutively activated mutations. The most prevalent of these is the internal tandem duplication. Two cell lines commonly used to test the potency of FLT3 inhibitors on cell growth and viability are the RS4(11) and MV4(11). The RS4(11) cell line, also known as RS4;11, was established from a bone marrow patient with acute lymphoblastic leukemia. This patient was […]. The cells lack surface and cytoplasmic immunoglobulin, and are negative for CD10. The cells have a characteristic chromosome translocation (4;11)(q21;q23), and an isochromosome for the long arm of chromosome 7. These cells express the wild-type FLT3 receptor and are further characterized by expression of the MHC Class II antigens (HLA DR+); CD9+; CD24+. The MV4(11) cell line, also known as MV-4-11, was established from the blast cells of a person with biphenotypic B myelomonocytic leukemia (ATCC). Other sources indicate this cell line is derived from acute monocytic leukemia (AML FAB M5). […] These cells express a mutant form of FLT3 containing an internal tandem duplication (ITD), and are further characterized by expression of CD4 (40-96%); CD10 (4-11%); CD15 (96-99%). […]
# FLT3 [2] = biological target: T2, FLT3 (Homo sapiens, UniProt P36888); assay: SelectScreen in vitro kinase screen, FLT3 (Example 2); format: biochemical; details: for activity against FLT3: in words
# T2 construct: the juxtamembrane, ATP and catalytic components projecting from the cell membrane into the cytosol have been expressed through recombinant genetic techniques; purchased Invitrogen, Inc. (SelectScreen platform)
# T2 sequence (P36888 564-993 limits assumed): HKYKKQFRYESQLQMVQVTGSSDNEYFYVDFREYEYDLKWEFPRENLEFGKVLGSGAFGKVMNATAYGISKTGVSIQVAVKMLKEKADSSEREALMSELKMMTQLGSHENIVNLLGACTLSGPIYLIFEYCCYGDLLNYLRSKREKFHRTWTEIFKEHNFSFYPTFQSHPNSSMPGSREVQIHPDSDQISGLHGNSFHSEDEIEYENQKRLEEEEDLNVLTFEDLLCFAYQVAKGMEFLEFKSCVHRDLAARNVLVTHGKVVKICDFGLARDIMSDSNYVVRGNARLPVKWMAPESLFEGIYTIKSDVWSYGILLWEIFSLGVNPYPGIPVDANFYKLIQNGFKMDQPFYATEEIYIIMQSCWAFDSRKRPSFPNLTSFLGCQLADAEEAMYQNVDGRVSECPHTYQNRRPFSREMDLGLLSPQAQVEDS
# Source text: as §1
# [3] = system: KDR, PDGF and TRK members of the RTK family; assay: SelectScreen in vitro kinase screen, closely related RTKs; format: biochemical; details: in words, relative to FLT3
# Source text: as §1
# MV4(11) cells = assay: Cell viability in MV4(11) cells; format: cell-based, human; details: FLT3 ITD, compared with PKC412
# Source text: as §5
# all the other RTK's = assay: SelectScreen in vitro kinase screen, other RTK and TK enzymes; format: biochemical; details: read-out: IC50 against all the other RTK's
# Source text: as §1
# FLT3 D835Y = biological target: T3, FLT3 D835Y (Homo sapiens, UniProt P36888, D835Y); assay: SelectScreen in vitro kinase screen, FLT3 mutant; format: biochemical; details: in words
# T3 construct: the juxtamembrane, ATP and catalytic components projecting from the cell membrane into the cytosol have been expressed through recombinant genetic techniques; purchased Invitrogen, Inc. (SelectScreen platform)
# T3 sequence (P36888 564-993 D835Y limits assumed): T2 sequence (P36888 564-993 limits assumed) with D272Y
# Source text: as §1
# HL-60 leukemia = assay: Growth arrest in HL-60 leukemia; details: Homo sapiens, HL-60, read-out: EC50 growth arrest
# Experimental: When standard protocols for adherent cell culture are followed, according to the instructions supplied by the American Type Culture Collection for the two line, the cell will proliferate with an approximate 30 hour doubling time.
# FLT3 [4] = biological target: T2, FLT3; assay: SelectScreen in vitro dose response assay against FLT3 (Example 7); format: biochemical; details: ATP at 100 micromolar; 4 parameter Hill equation
# Experimental: The terms “IC50” and “EC50” are used interchangeably. As used herein, “EC50” refers to nMolar concentration at median percent inhibition determined by dose respose (DR) assay. As used herein, the term “E1000” refers to percent inhibition at 1000 nMolar determined by assay. EC50 was calculated based on dose response curve was fitted to 4 parameter Hill equation.
# The compounds were then re-tested by adding graded amounts of putative inhibitor which were added in 5 separate increments to generate a dose response curve. The latter is obtained by fitting to a 4 parameter Hill equation, a sigmoid saturation equation.
# The 2× FLT3/Tyr 02 peptide mixture was prepared in 50 mM HEPES pH 7.5, 0.01 BRIJ-35, 10 mM MgCl2, 1 mM EGTA. The final 10 uL kinase reaction consists of 0.6-76.0 ng FLT3 and 2 uM Tyr 02 peptide in 50 mM HEPES pH 7.5, 0.01% BRIJ-35, 10 mM Mg Cl2, 1 mM EGTA. After 1 hour kinase reaction incubation, 5 uL of a 1:64 dilution of development reagent A was added.
# [5] = read-out: IC50 as FLT3 inhibitors (FIG. 3)
# Sequence of NTRK1 (P04629 33-796): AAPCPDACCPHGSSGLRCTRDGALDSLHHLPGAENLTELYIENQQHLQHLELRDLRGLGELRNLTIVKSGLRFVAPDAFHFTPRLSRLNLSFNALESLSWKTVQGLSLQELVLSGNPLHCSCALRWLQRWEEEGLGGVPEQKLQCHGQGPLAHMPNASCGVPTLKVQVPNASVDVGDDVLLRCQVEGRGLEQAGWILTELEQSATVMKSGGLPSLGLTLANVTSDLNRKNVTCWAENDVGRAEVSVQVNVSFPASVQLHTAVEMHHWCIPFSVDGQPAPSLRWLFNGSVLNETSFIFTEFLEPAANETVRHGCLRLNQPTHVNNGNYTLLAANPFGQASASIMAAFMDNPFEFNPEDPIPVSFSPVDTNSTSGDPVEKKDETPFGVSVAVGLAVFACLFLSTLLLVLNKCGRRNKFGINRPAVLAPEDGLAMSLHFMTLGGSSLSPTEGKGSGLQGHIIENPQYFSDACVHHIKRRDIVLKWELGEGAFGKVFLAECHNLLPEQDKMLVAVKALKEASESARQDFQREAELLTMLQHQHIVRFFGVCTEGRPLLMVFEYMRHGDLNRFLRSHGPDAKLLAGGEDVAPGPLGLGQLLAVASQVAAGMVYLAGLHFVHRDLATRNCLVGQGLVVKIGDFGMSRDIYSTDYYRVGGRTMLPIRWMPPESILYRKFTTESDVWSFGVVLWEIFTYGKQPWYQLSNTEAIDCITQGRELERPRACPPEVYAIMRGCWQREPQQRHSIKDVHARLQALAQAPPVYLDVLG
smiles,measurement,setting,value
"C[C@]12O[C@H](C[C@]1(O)CO)n1c3ccccc3c3c4c(c5c6ccccc6n2c5c31)CNC4=O [CEP-701, reference compound]",inhibition of NTRK1,NTRK1,inhibits
same,inhibition of FGFR2,"FGFR2; in words, FIG. 4A",inhibits
CO[C@@H]1[C@H](N(C)C(=O)c2ccccc2)C[C@H]2O[C@]1(C)n1c3ccccc3c3c4c(c5c6ccccc6n2c5c31)C(=O)NC4 [PKC-412],cross-reaction with PKC,PKC,cross-reacts
same,cross-reaction with PDGFRb,PDGFRb,cross-reacts
CCN(CC)CCNc1ccc2ncn3c4ccc(O)cc4c(=O)c1c23 [XF-2],"drop of inhibitory activity on FGFR2 relative to FLT3, in EC50 value",FGFR2; FGFR2 versus FLT3,100 fold
same,IC50,FGFR2; read-out: IC50 against FGFR2,> 2000 nM
same,clinical scores,[1],lower clinical scores
same,EC50,"RS4(11) cells; Homo sapiens, read-out: effective concentration to decrement cell viability by 50% (EC50), 72 hrs of continuous exposure",34 nM
same,activity against FLT3,FLT3 [2],active
same,IC50,FLT3 [2]; read-out: IC50 against FLT3,~10 nM
same,IC50,FLT3 [2]; [5],8 nM
same,"inhibitory activity against KDR, PDGF and TRK members of the RTK family",[3],many fold less pronounced
same,"cell viability potency, in words",MV4(11) cells,closely matched
same,IC50,all the other RTK's,> 5 µM
same,activity against FLT3 mutant form,FLT3 D835Y,active
same,EC50,HL-60 leukemia,> 10 µM
O=c1c2cc(O)ccc2n2cnc3ccc(NCCN4CCOCC4)c1c32 [XF-22],"EC50 cell viability, in words","RS4(11) cells; 72 hrs, compared with PKC-412",closer to the micromolar mark
same,activity against FLT3,FLT3 [2],active
same,IC50,FLT3 [2]; [5],12 nM
same,"inhibitory activity against KDR, PDGF and TRK members of the RTK family",[3],many fold less pronounced
same,"cell viability potency, in words",MV4(11) cells,less activity
same,activity against FLT3 mutant form,FLT3 D835Y,active
same,EC50,HL-60 leukemia,> 10 µM
CN(C)CCNc1ccc2ncn3c4ccc(O)cc4c(=O)c1c23 [XF-0025],EC50,FLT3 [4],25 nM
O=c1c2cc(O)ccc2n2cnc3ccc(NCCCN4CCOCC4)c1c32 [XF-0113],EC50,FLT3 [4],50 nM
same,activity against FLT3,FLT3 [2],active
same,"inhibitory activity against KDR, PDGF and TRK members of the RTK family",[3],many fold less pronounced
same,activity against FLT3 mutant form,FLT3 D835Y,active
O=c1c2c(NCCN3CCOCC3)ccc3ncn(c4ccc5[nH]ncc5c14)c32 [XF-0122],EC50,FLT3 [4],51 nM
O=c1c2cc(O)ccc2n2cnc3ccc(NCCN4CCCC4)c1c32 [XF-0241],EC50,FLT3 [4],50 nM
CN(C)CCNc1ccc2ncn3c4ccccc4c(=O)c1c23 [XF-0308],EC50,FLT3 [4],133 nM
O=c1c2ccccc2n2cnc3ccc(NCCNCCO)c1c32 [XF-0328],EC50,FLT3 [4],135 nM
